According to US20240317826A1, “COMPOSITIONS AND METHODS FOR TREATING AND/OR I[…] AGENT FOR TREATING HIV-1 INFECTIONS” (priority 2021, published 2024):
Entries after “also recorded” stand apart in the source; their conditions may differ. Like-named read-outs stand apart in the source and are kept apart here.

Columns and labels:
IN-TAR RNA interaction = molecular target: T1, IN-TAR RNA interaction (Human immunodeficiency virus type 1 group M subtype B, UniProt P04585); experiment: Alpha interaction assay: effect of stapled peptides on IN-TAR RNA interaction; type: binding, HIV-1; conditions: in vitro
T1 construct: made in house; host or cells: bacteria (E. coli inferred from the pGEX vector)
Protocol: (§1) FIG. 8A-FIG. 8D show quantitative alpha interaction assay to determine the effect of stapled peptides on the interaction of IN and IN-CTD with INI1 and INI1183-304 or TAR RNA. […] Fixed concentrations of GST-IN, 6His-INI1, and TAR RNA were incubated with increasing concentration of stapled peptides and the interaction was detected as Alpha Score. The IC50 values were determined by fitting the data to a four-parameter dose-response curve using Graph Pad prism. All the graphs represent the average of three independent experiments (Mean+/−SEM).
(§2) AlphaScreen proximity assay to detect the protein-protein and protein-RNA interactions. AlphaScreen assay was carried out using PerkinElmer Alpha-Lisa-6His Acceptor beads (Catalogue #AL128C), Alpha-Screen-GST donor beads (Catalogue #6765300), GST-tagged and His-tagged proteins for protein-protein interactions; and Alpha-Screen Streptavidin donor beads (Catalogue #6760002 S), Alpha-Lisa-GST acceptor beads (Catalogue #AL110C), Biotin-labeled RNA and GST-tagged proteins for protein-RNA interactions. The reaction was carried out according to the manufacturer's protocol in a reaction buffer contacting (25 mM HEPES pH 7.4, 100 mM NaCl (or 500 mM NaCl), 1 mM DTT, 1 mM MgCl2 and BSA 1 mg ml/ml). The mixture of proteins or protein and RNA were incubated for 1 hr at room temperate with shaking in a multi micro-plate shaker and then 20 ag ml/ml accepter beads were added and incubated for additional 1 h with shaking. Finally, 20 ag ml^−1 of donor beads were added and further incubated for 1 hr. The Alpha score readings were measured using Alpha-compatible Envision 2105 multi-plate reader (Perkin-Elmer). All the experiments related to this method were carried out 3 to 5 times and data were analyzed by using Graph Pad Prism 9 version 9.0.0 (GraphPad Software, CA). The RNA sequences used in this assay are listed in the Table 6d and were obtained from Integrated DNA technology.
(§3) These peptides were tested for their ability to disrupt the interaction between IN-INI1 and IN-TAR RNA in vitro.

HIV-1NL4-3 = experiment: Multiday HIV-1 replication assay in CEM-GFP cells; type: cell-based; conditions: CEM-GFP cells infected with HIV-1NL4-3; 1 and 5 micromolar peptide; GFP expression and p24 in culture supernatants
From the text: FIG. 9A-FIG. 9C show an inhibition of HIV-1 replication by Stapled peptides in a multiday replication assay in CEM-GFP cells. […] FIG. 9B and FIG. 9C show images representing the expression of GFP in CEM GFP cells in presence or absence of 1 and 5 micromolar Stapled peptides or DMSO control. FIG. 9D and FIG. 9E show p24 ELISA analysis of culture supernatants from CEM-GFP cells from panels FIG. 9B and FIG. 9C samples. The CEM-GFP cells were infected with HIV-1NL4-3 and treated with stapled peptides. Culture supernatants were collected on multiple days as indicated and p24 analysis was carried out.
To determine if the stapled peptides can inhibit HIV-1 replication in cell culture, we used CEM-GFP cell lines, which harbor LTR-GFP as a reporter. HIV-1 infection of these cells activates GFP expression.

IN/TAR RNA complex = molecular target: T2, IN/TAR RNA complex (Human immunodeficiency virus type 1 group M subtype B, UniProt P04585); experiment: RNA-co-IP in 293T cells: TAR RNA bound to YFP-IN; type: cell-based, HIV-1
T2 construct: expressed in transfected cells; host or cells: 293T cells
From the text: Panels d-g show the input RNA and protein levels within transfected cells: the RT-PCR analysis of input TAR RNA levels (panel d); Immunoblot analysis of input HA-INI1 (panel e); input YFP-IN (panel f); and GAPDH level for loading control (panel g). Lane 1 is RNA-co-IP using isotype IgG control antibodies and lanes 2-7 are RNA-co-IP using anti-GFP antibodies to pull down IN. There is ˜1000 fold inhibition of RNA and INI1 binding to IN in the presence of SP-38 peptide (compare lane 6 to lane 5).
For RNA-co-IP, […] were transfected with pCMV-Tat and pLTR-luc plasmids along with pYFP-IN and pCGN-INI1. Immunopreciptation was carried out as above using α-GFP (Cell Signal, Catalogue #2555; Lot #8; 5 ag/sample) antibodies. The immunecomplexes were then split into two and RNA was isolated from one half using Trizol reagent (Invitrogen Catalogue #15596026) and subjected to qRT-PCR using Early RT primers. The other half was subjected to immunoblot analysis.
To determine if stapled peptides can inhibit interaction of IN with TAR RNA in cells, we carried out RNA-co-IP experiments (FIG. 8e). YFP-IN and TAR RNA were expressed by co-transfecting plasmids pYFP-fN, pLTIR-luc and pTat in 293T cells. Cells were treated with SP-38 or SP-83 (D225G mutant) peptides. After transfection, the cell lysates were treated with DNaseI and subjected to immunoprecipitation (IP) using α-GFP antibodies to pull down YFP-IN and associated complexes. RNA was separated from the immune complexes and subjected to RT-PCR to detect bound TAR RNA (FIG. 8e, panel a). Immunoblot analysis of bound proteins were carried out using: α-HA to detect bound HA-INI1 (FIG. 8e, panel b) and α-GFP to detect YFP-IN (FIG. 8e, panel c). RT-PCR of the RNA isolated from cell lysate was used as input control (FIG. 8e, panel d). Immunoblot analysis of total proteins from cell lysates as input control were carried out using α-HA to detect input HA-INI1 (FIG. 8e, panel e), α-GFP to detect input YFP-IN (FIG. 8e, panel f), and α-GAPDH to detect GAPDH as loading control (FIG. 8e, panel g). […] Expression of both GFP-IN and TAR RNA in the cells led to successful RNA-co-IP by α-GFP antibodies (FIG. 8e, lane 5).

IN-INI1 interaction = molecular target: T3, IN-INI1 interaction (Human immunodeficiency virus type 1 group M subtype B, UniProt P04585); experiment: Alpha interaction assay: effect of stapled peptides on IN-INI1 interaction; type: binding, HIV-1; conditions: in vitro
T3 construct: made in house; host or cells: bacteria (E. coli inferred from the pGEX vector)
Protocol: as §1, §2, §3

[1] = test system: INI1 incorporation into HIV-1 virions; experiment: Immunoblot of virions for incorporation of INI1; type: cell-based; conditions: Western analysis of concentrated virions
From the text: FIG. 12A-FIG. 12C show effects of stapled peptides on virion morphogenesis and incorporation of INI1. […] The middle panel is the expanded version and the lower panel represents the carton of the two viral particles from the middle panel. Note the empty capsid shell and eccentric electron dense material, typical of morphologically defective virions. […] About 200 virions each were scored to quantify four different types of morphological forms—Conical (Co), Eccentric (Ec), Immature (Im) and Unclear (Uc).
We tested the incorporation of INI1 into the virions. Electron microscopy analysis of ˜200 particles and Western analysis of concentrated virions were carried out to determine the presence or absence of INI1 (FIG. 12b).

Row | Substance | inhibition of IN-TAR RNA interactions (IN-TAR RNA interaction) | inhibition of HIV-1 propagation/replication (HIV-1NL4-3) | inhibition of IN/RNA complex formation within cells (IN/TAR RNA complex) | inhibition of RNA binding to IN in RNA-co-IP (IN/TAR RNA complex; RT-PCR of bound TAR RNA) | inhibition of IN/RNA complex formation within cells (IN/TAR RNA complex; listed as SP83 (D225G)) | inhibition of IN-INI1 interactions (IN-INI1 interaction) | incorporation of INI1 into virions [1] | IC50, inhibition of IN-TAR RNA interactions (IN-TAR RNA interaction) | IC50, inhibition of IN-INI1 interactions (IN-INI1 interaction)
1 | lys-Leu-Met-Thr-Pro-Glu-Met-Phe-S5-Glu-Ile-Leu-S5-Cys-Gly-Leu-Asn [SP83] | not | not | not | not | does not inhibit | not | incorporated | – | –
2 | lys-Leu-Met-Thr-Pro-Glu-Met-Phe-S5-Glu-Ile-Leu-S5-Cys-Asp-Leu-Asn [SP38] | – | Inhibits HIV-1 Replication at Low Micromolar Concentrations; also recorded: potently inhibited | potently inhibits | – | – | – | not incorporated; also recorded: lack of INI1 incorporation into virions | low nanomolar | low nanomolar
